Where two headings read alike, the source gives them in different places.
Legend:
[1] = test system: S. aureus biofilm; assay: Photodynamic eradication of biofilm bacteria; format: cell-based, Staphylococcus aureus; conditions: light irradiation at 600 nm for 45 min
Description: For biofilm bacteria, overnight culture of S. aureus or P. aeruginosa was diluted to 1 × 10^5 CFU/mL in TSB (with 1% glucose). Portion of 100 μL of the diluted bacteria culture was added to the wells of a 96-well plate. The plate was incubated under darkness for 24 h at 37 °C. Then, the planktonic bacterial suspensions were removed from the wells. The biofilms were washed with PBS (3 times) to remove any remaining planktonic bacteria. Different concentrations of TPA-1 were dissolved in PBS. TPA-1 solution was added to the biofilms (120 μL for S.aureus, 150 μL for P.aeruginosa). After 20 min of incubation under darkness at 30 °C, the biofilms were kept in the dark or irradiated by 600 nm light (60 mW/cm^2) for 15, 30, and 45 min. After that, the TPA-1 solution was replaced by 120 μL of PBS. The biofilm was then suspended in PBS by scratching, followed by sonication (5 min, ≤42 kHz) and vortex (5 min, 950 rpm). The number of viable bacteria was determined by the plate counting method. All experiments were carried out in triplicate.

[2] = test system: S. aureus; assay: Time-kill kinetics against S. aureus; format: cell-based, Staphylococcus aureus; conditions: 2 × MIC (6.25 μM), dark
Description: Similar to the MIC assay, the overnight culture of S. aureus incubated under darkness was diluted in fresh MHB and grown to the mid log phase. The S. aureus was then diluted to 1 × 10^6 CFU/mL in cation-adjusted MHB. Three mL of diluted S. aureus was transferred into a 15 mL culture tube. 2 × MIC and 4 × MIC of TPA-1 was added into the bacterial culture and incubated under darkness for 24 h. 2 × MIC of vancomycin and PBS were taken as the positive and negative controls, respectively. At time 0, 0.5, 1, 2, 4, 6, 8, and 24 h, 20 μL of the bacteria culture was taken out. The bacteria were serially diluted, and the number of viable bacteria was recorded using the plate counting method. The experiment was performed in triplicate.

[3] = test system: planktonic P. aeruginosa; assay: Photodynamic eradication of planktonic bacteria; format: cell-based, Pseudomonas aeruginosa; conditions: 2 μM, 600 nm (60 mW/cm^2)
Description: For planktonic bacteria, an overnight culture of S. aureus or P. aeruginosa was diluted 100 times in TSB and grown to OD = 1. The bacteria cultures were then diluted to […] in PBS. TPA-1 (2 μM) was added to the diluted cultures and incubated under darkness for 20 min at 30 °C. Bacterial cultures of 200 μL were transferred to the wells of a 96-well plate. The plate was irradiated by 600 nm light (60 mW/cm^2) for 30 and 45 min. Then, the bacterial cultures were serially diluted, and the number of viable bacteria was counted using the plate counting method.

[4] = test system: P. aeruginosa (ATCC 27853); assay: MIC assay (broth microdilution, CLSI), without light; format: cell-based; conditions: Pseudomonas aeruginosa, ATCC27853, light or radiation study
Description: The MIC assays of TPA-1 were conducted according to the broth microdilution methods described in the Clinical and Laboratory Standards Institute (CLSI) standard. A single colony of S. aureus (ATCC 29213), methicillin-resistant S. aureus (BAA 41), or P. aeruginosa (ATCC 27853) on an LB agar plate was picked and suspended in Mueller–Hinton Broth (MHB). The bacterial culture was grown overnight at 37 °C. The next day, the bacteria culture was diluted 100 times in fresh MHB and grown to the mid log phase. Bacteria in the mid log phase were further diluted to 5 × 10^6 CFU/mL in cation-adjusted MHB (S. aureus) or MHB (P. aeruginosa). Ten μL of the diluted bacteria were added to a 96-well plate containing 90 μL of serial diluted TPA-1 in the corresponding medium. The plate was incubated overnight at 37 °C. The MICs of the TPA compounds were the concentrations at which no apparent bacteria were observed by the naked eye. Different concentrations of LTA were also added to examine the change in MIC values of TPA-1 against S. aureus. The experiments were conducted in triplicate.

[5] = Cytotoxicity (MTT) assay against HFF-1 cells; format: cell-based; conditions: human, no irradiation, read-out: 50% cytotoxicity concentration (CC50) against HFF-1 cells
Description: The cytotoxicity of TPA-1, TPA-0, and TPA-NC-1 against HFF-1 cells was evaluated using the 3-(4,5-dimethylthiazol-2-yl)-2,5-diphenyltetrazolium bromide (MTT) assay kit from ThermoFisher Scientific. In general, HFF-1 cells (MEM, 10% FBS, and 1% penicillin-streptomycin) were seeded in a 96-well plate with a density of 3000 cells/well overnight at 37 °C with 5% CO2. Then, the cells were treated with different concentrations of compounds for 24 h. MTT (10 μL, 5 mg/mL) was added to the medium, and the cells were further incubated for 3 h. The medium was then replaced by DMSO (100 μL). After gently shaking the plate for 30 s, the optical density of the solutions at 570 nm was measured by a BMG Labtech CLARIOstar microplate reader. The cell viability was calculated as (ODcompound – ODDMSO)/(ODmedium - ODDMSO) × 100% where ODcompound, ODmedium, and ODDMSO are the optical densities of the treated cell, nontreated cells, and DMSO at 570 nm, respectively. The experiment was conducted in triplicate. The CC50 values were calculated using GraphPad Prism 8.

SMILES: C#CCC[n+]1c(/C=C/c2ccc(-c3ccc(N(c4ccc(OCCC[N+](C)(C)C)cc4)c4ccc(OCCC[N+](C)(C)C)cc4)cc3)s2)sc2ccccc21.[Br-].[Br-].[Br-] [TPA-1]
- S. aureus biofilm log CFU/mL reduction [1]: 1.18 ± 0.05 log CFU/mL
- S. aureus in the biofilm eradicated [1]: 92% ± 3%
- time to completely eradicate S. aureus [2]: ≤ 2 h
- planktonic P. aeruginosa eradicated ([3]; 30 min): 99.96% ± 0.03%
- planktonic P. aeruginosa log CFU/mL reduction ([3]; 30 min): 3.4 ± 0.2 log CFU/mL
- planktonic P. aeruginosa eradicated ([3]; 45 min): > 99.99%
- planktonic P. aeruginosa log CFU/mL reduction ([3]; 45 min): > 5 log CFU/mL
- MIC ([4]; read-out: MIC against ATCC 27853 Pseudomonas aeruginosa without light irradiation): 100 µM
- MIC ([4]; without light irradiation, read-out: MIC against P. aeruginosa (ATCC 27853)): > 100 µM
- CC50 at 24 h [5]: 260 ± 40 µM

From article PMC12035805, “A Water-Soluble Aggregation-Induced Emission Photosensitizer with Intrinsic Antibacterial Activity as an Antiplanktonic and Antibiofilm Therapeutic Agent” (Journal of Medicinal Chemistry, 2025)
